Assays:
[1] = system: Myzus persicae (Green Peach Aphid); assay: Activity against Myzus persicae, sprayed sunflower leaf discs; assay type: in vivo; conditions: foliar, 144 h, application rate of 200 ppm, aphid population of mixed ages, 6 days after infestation
Procedure: (§1) Sunflower leaf discs were placed on agar in a 24-well microtiter plate and sprayed with aqueous test solutions prepared from 10,000 ppm DMSO stock solutions. After drying, the leaf discs were infested with an aphid population of mixed ages. The samples were assessed for mortality 6 days after infestation.

[2] = system: Spodoptera littoralis (Egyptian Cotton Leaf Worm); assay: Activity against Spodoptera littoralis, sprayed cotton leaf discs; assay type: in vivo; conditions: foliar, 72 h, application rate of 200 ppm, L1 larvae, 3 days after infestation, read-out: control (at least one of mortality, anti-feedant effect, and growth inhibition)
Procedure: Cotton leaf discs were placed on agar in 24-well microtiter plates and sprayed with aqueous test solutions prepared from 10,000 ppm DMSO stock solutions. After drying the leaf discs were infested with five L1 larvae. The samples were assessed for mortality, anti-feedant effect, and growth inhibition in comparison to untreated samples 3 days after infestation. Control of Spodoptera littoralis by a test sample is when at least one of mortality, anti-feedant effect, and growth inhibition is higher than the untreated sample.

[3] = system: Bemisia tabaci (Cotton White Fly); assay: Activity against Bemisia tabaci, sprayed cotton leaf discs; assay type: in vivo; conditions: foliar, 144 h, application rate of 200 ppm, adult white flies, 6 days after incubation
Procedure: Cotton leaf discs were placed on agar in 24-well microtiter plates and sprayed with aqueous test solutions prepared from 10,000 ppm DMSO stock solutions. After drying the leaf discs were infested with adult white flies. The samples were checked for mortality 6 days after incubation.

[4] = system: Thrips tabaci (Onion Thrips); assay: Activity against Thrips tabaci, sprayed sunflower leaf discs; assay type: in vivo; conditions: foliar, 144 h, application rate of 200 ppm, thrips population of mixed ages, 6 days after infestation
Procedure: as §1, with “in” for “in a”, “plates” for “plate”, “drying” for “drying,”, “a thrips” for “an aphid”

[5] = system: Plutella xylostella (Diamond Back Moth); assay: Activity against Plutella xylostella, treated artificial diet; assay type: in vivo; conditions: 120 h, application rate of 200 ppm, L2 larvae, 5 days after infestation, read-out: effect in at least one of the two categories (mortality or growth inhibition)
Procedure: (§2) 24-well microtiter plates with artificial diet were treated with aqueous test solutions prepared from 10,000 ppm DMSO stock solutions by pipetting. After drying, the plates were infested with L2 larvae (10 to 15 per well). The samples were assessed for mortality and growth inhibition in comparison to untreated samples 5 days after infestation.

[6] = system: Diabrotica Balteata (Corn Root Worm); assay: Activity against Diabrotica balteata, sprayed maize sprouts; assay type: in vivo; conditions: 96 h, application rate of 200 ppm, L2 larvae, 4 days after infestation, read-out: effect in at least one of the two categories (mortality or growth inhibition)
Procedure: as §2, with “Maize sprouts, placed on an agar layer in 24-well” for “24-well”, “plates” for “plates with artificial diet”, “spraying.” for “pipetting.”, “(6” for “(10”, “10” for “15”, “4” for “5”

[7] = system: Spodoptera littoralis (Egyptian Cotton Leaf Worm); assay: Activity against Spodoptera littoralis, systemic via lettuce grown on treated agar; assay type: in vivo; conditions: 144 h, test rate of 12.5 ppm, root uptake by lettuce, 6 days after infestation, read-out: effect in at least one of the three categories (mortality, anti-feedancy, or growth inhibition)
Excerpt: Test compounds were applied by pipette from 10,000 ppm DMSO stock solutions into 24-well plates and mixed with agar. Lettuce seeds were placed on the agar and the multi well plate was closed by another plate which contains also agar. After 7 days the roots have absorbed the compound and the lettuce has grown into the lid plate. The lettuce leafs were now cut off into the lid plate. Spodoptera eggs were pipetted through a plastic stencil on a humid gel blotting paper and the plate closed with it. The samples were assessed for mortality, anti-feedant effect and growth inhibition in comparison to untreated samples 6 days after infestation.

[8] = system: Euschistus heros(Neotropical Brown Stink Bug); assay: Activity against Euschistus heros, sprayed soybean leaf; assay type: in vivo; conditions: 120 h, application rate of 200 ppm, N-2 nymphs, 5 days after infestation, read-out: effect in at least one of the two categories (mortality or growth inhibition)
Procedure: Soybean leaf on agar in 24-well microtiter plates were sprayed with aqueous test solutions prepared from 10,000 ppm DMSO stock solutions. After drying the leaf were infested with N-2 nymphs. The samples were assessed for mortality and growth inhibition in comparison to untreated samples 5 days after infestation.

[9] = system: Frankliniella occidentalis (Western Flower Thrips); assay: Activity against Frankliniella occidentalis, sprayed sunflower leaf discs; assay type: in vivo; conditions: foliar, 168 h, application rate of 200 ppm, population of mixed ages, 7 days after infestation
Procedure: as §1, with “in” for “in a”, “plates” for “plate”, “10,000” for “10,000 ppm”, “drying” for “drying,”, “a Frankliniella” for “an aphid”, “7” for “6”

[10] = system: Myzus persicae (Green Peach Aphid); assay: Activity against Myzus persicae, systemic via roots of pea seedlings; assay type: in vivo; conditions: 144 h, test rate of 24 ppm, roots of pea seedlings in test solution, 6 days
Procedure: Roots of pea seedlings infested with an aphid population of mixed ages were placed directly in the aqueous test solutions prepared from 10,000 DMSO stock solutions. The samples were assessed for mortality 6 days after placing seedlings in test solutions.

[11] = system: Tetranychus urticae (Two-Spotted Spider Mite); assay: Activity against Tetranychus urticae, sprayed bean leaf discs; assay type: in vivo; conditions: foliar, 192 h
Procedure: Bean leaf discs on agar in 24-well microtiter plates were sprayed with aqueous test solutions prepared from 10,000 ppm DMSO stock solutions. After drying the leaf discs were infested with a mite population of mixed ages. The samples were assessed for mortality on mixed population (mobile stages) 8 days after infestation.

| Compound | mortality at 200 ppm [1] | mortality at 200 ppm [2] | mortality at 200 ppm [3] | mortality at 200 ppm [4] | percent effect (mortality or growth inhibition) at 200 ppm [5] | percent effect (mortality or growth inhibition) at 200 ppm [6] | percent control (mortality, anti-feedancy or growth inhibition) at 12.5 ppm [7] | percent effect (mortality or growth inhibition) at 200 ppm [8] | mortality at 200 ppm [9] | mortality at 24 ppm [10] | mortality at 200 ppm [11] | melting point |
| --- | --- | --- | --- | --- | --- | --- | --- | --- | --- | --- | --- | --- |
| CCS(=O)(=O)c1cc(-n2cc(C(F)(F)F)cn2)cnc1-c1nnc(-c2cc(C(F)(F)F)ccn2)n1C [Compound P6] | ≥ 80% | ≥ 80% | ≥ 80% | ≥ 80% | ≥ 80% | ≥ 80% | ≥ 80% | ≥ 80% | ≥ 80% |  |  |  |
| CCS(=O)(=O)c1cc(-n2cc(C#N)cn2)cnc1-c1nnc(-c2cc(C(F)(F)F)ccn2)n1C [Compound P14, 1-[5-ethylsulfonyl-6-[4-methyl-5-[4-(trifluoromethyl)-2-pyridyl]-1,2,4-triazol-3-yl]-3-pyridyl]pyrazole-4-carbonitrile] | ≥ 80% | ≥ 80% | ≥ 80% | ≥ 80% | ≥ 80% | ≥ 80% | ≥ 80% | ≥ 80% | ≥ 80% | ≥ 80% |  |  |
| CCS(=O)(=O)c1cc(C2(C#N)CC2)cnc1-c1nnc(-c2cc(C(F)(F)F)ccn2)n1C [Compound P17, 1-[5-ethylsulfonyl-6-[4-methyl-5-[4-(trifluoromethyl)-2-pyridyl]-1,2,4-triazol-3-yl]-3-pyridyl]cyclopropanecarbonitrile] | ≥ 80% | ≥ 80% | ≥ 80% | ≥ 80% | ≥ 80% | ≥ 80% | ≥ 80% | ≥ 80% | ≥ 80% | ≥ 80% |  |  |
| CCS(=O)(=O)c1cc(-c2nccc(C#N)n2)cnc1-c1nnc(-c2cc(C(F)(F)F)ccn2)n1C [Compound P19] |  | ≥ 80% |  |  |  | ≥ 80% |  |  |  |  | ≥ 80% |  |
| CCS(=O)(=O)c1cc(-c2cc(C#N)ccn2)cnc1-c1nnc(-c2cc(C(F)(F)F)ccn2)n1C [Compound P23] | ≥ 80% | ≥ 80% |  | ≥ 80% | ≥ 80% | ≥ 80% | ≥ 80% | ≥ 80% | ≥ 80% | ≥ 80% |  |  |
| CCS(=O)(=O)c1cc(-n2cnc(Cl)n2)cnc1-c1nnc(-c2cc(C(F)(F)F)ccn2)n1C [Compound P27] | ≥ 80% | ≥ 80% | ≥ 80% | ≥ 80% | ≥ 80% | ≥ 80% | ≥ 80% | ≥ 80% | ≥ 80% | ≥ 80% |  |  |
| CCS(=O)(=O)c1cc(C2CC2)cnc1-c1nnc(-c2cc(C(F)(F)F)ccn2)n1C [Compound P29, 5-cyclopropyl-3-ethylsulfonyl-2-[4-methyl-5-[4-(trifluoromethyl)-2-pyridyl]-1,2,4-triazol-3-yl]pyridine] | ≥ 80% | ≥ 80% |  | ≥ 80% | ≥ 80% | ≥ 80% | ≥ 80% |  |  | ≥ 80% |  |  |
| CCSc1ccc(-c2ccc(C(F)(F)F)cc2)nc1-c1nnc(-c2cc(C(F)(F)F)ccn2)n1C [Compound P31, 3-ethylsulfanyl-2-[4-methyl-5-[4-(trifluoromethyl)-2-pyridyl]-1,2,4-triazol-3-yl]-6-[4-(trifluoromethyl)phenyl]pyridine] |  |  |  |  |  |  |  |  |  |  |  | 174 to 175 °C |
| CCS(=O)(=O)c1ccc(-c2ccc(C(F)(F)F)cc2)nc1-c1nnc(-c2cc(C(F)(F)F)ccn2)n1C [Compound P32, 3-ethylsulfonyl-2-[4-methyl-5-[4-(trifluoromethyl)-2-pyridyl]-1,2,4-triazol-3-yl]-6-[4-(trifluoromethyl)phenyl]pyridine] |  | ≥ 80% | ≥ 80% | ≥ 80% | ≥ 80% | ≥ 80% |  |  |  |  |  |  |
| CCSc1cc(SC(F)(F)F)cnc1-c1nnc(-c2cc(C(F)(F)F)ccn2)n1C [Compound P33, 3-ethylsulfanyl-2-[4-methyl-5-[4-(trifluoromethyl)-2-pyridyl]-1,2,4-triazol-3-yl]-5-(trifluoromethylsulfanyl)pyridine] |  |  |  |  |  |  |  |  |  |  |  | 94 to 95 °C |
| CCS(=O)(=O)c1ccc(-n2cncn2)nc1-c1nnc(-c2cc(C(F)(F)F)ccn2)n1C [Compound P37] | ≥ 80% | ≥ 80% | ≥ 80% |  | ≥ 80% | ≥ 80% |  | ≥ 80% |  | ≥ 80% |  |  |
| CCS(=O)(=O)c1cc(-n2cnc(Cl)n2)cnc1-c1nnc(-c2cc(C(F)(F)F)ncn2)n1C [Compound P45] | ≥ 80% | ≥ 80% | ≥ 80% | ≥ 80% | ≥ 80% | ≥ 80% |  | ≥ 80% | ≥ 80% | ≥ 80% |  |  |
| CCS(=O)(=O)c1ccc(-n2cnc(Cl)n2)nc1-c1nnc(-c2cc(C(F)(F)F)ncn2)n1C [Compound P48, 4-[5-[6-(3-chloro-1,2,4-triazol-1-yl)-3-ethylsulfonyl-2-pyridyl]-4-methyl-1,2,4-triazol-3-yl]-6-(trifluoromethyl)pyrimidine] | ≥ 80% | ≥ 80% | ≥ 80% |  | ≥ 80% | ≥ 80% | ≥ 80% | ≥ 80% | ≥ 80% |  |  |  |
| CCS(=O)(=O)c1ccc(-n2cnc(C#N)n2)nc1-c1nnc(-c2cc(C(F)(F)F)ncn2)n1C [Compound P49] |  |  |  |  |  |  |  |  |  |  |  | 242 to 244 °C |
| CCS(=O)(=O)c1ccc(-c2cccc(F)c2)nc1-c1nnc(-c2cc(C(F)(F)F)ncn2)n1C [Compound P51] |  |  |  |  |  |  |  |  |  |  |  | 201 to 203 °C |

From patent US10292391B2, “Pesticidally active 1,2,4-triazole derivatives with sulphur containing substituents” (Syngenta Participations AG, priority 2015, dated 2019)
